Source: US5952333A, “Quinazoline derivative” (Zeneca Limited, priority 1995, dated 1999)

Tests used:
[1] = test system: human naso-pharyngeal cancer cell line KB; assay: In vitro inhibition of the EGF-stimulated growth of the human naso-pharyngeal cancer cell line KB (test (b)); type: cell-based; details: 72 h, approximate value, KB cells, EGF (10 ng/ml), 3 days, MTT
Method: (b) An in vitro assay which determines the ability of a test compound to inhibit the EGF-stimulated growth of the human naso-pharyngeal cancer cell line KB.
KB cells were seeded into wells at a density of 1×10^4 -1.5×10^4 cells per well and grown for 24 hours in DMEM supplemented with 5% FCS (charcoal-stripped). Cell growth was determined after incubation for 3 days by the extent of metabolism of MTT tetrazolium dye to furnish a bluish color. Cell growth was then determined in the presence of EGF (10 ng/ml) or in the presence of EGF (10 ng/ml) and a test compound at a range of concentrations. An IC50 value could then be calculated.

[2] = test system: xenografts of the human vulval epidermoid carcinoma cell line A431; assay: In vivo inhibition of growth of A431 xenografts in athymic nude mice (test (c)); set-up: species or system athymic nude mice (strain ONU:Alpk); human tumour; details: approximate, daily dose of 50 mg/kg, usually orally, once daily, usually 13 days, relative to untreated controls
Method: (c) An in-vivo assay in a group of athymic nude mice (strain ONU:Alpk) which determines the ability of a test compound (usually administered orally as a ball-milled suspension in 0.5% polysorbate) to inhibit the growth of xenografts of the human vulval epidermoid carcinoma cell line A431. A431 cells were maintained in culture in DMEM supplemented with 5% FCS and 2 mM glutamine. Freshly cultured cells were harvested by trvpsinization and injected subcutaneously (10 million cells/0.1 ml/mouse) into both flanks of a number of donor nude mice. When sufficient tumour material was available (after approximately 9 to 14 days), fragments of tumour tissue were transplanted in the flanks of recipient nude mice (test day 0). Generally, on the seventh day after transplantation (test day 7) groups of 7 to 10 mice with similar-sized tumours were selected and dosing of the test compound was commenced. Once daily dosing of test compound was continued for a total of 13 days (test days 7 to 19 inclusive). In some studies the dosing of the test compound was continued beyond test day 19, for example to test day 26. In each case. on the following test day the animals were killed and the final tumour volume was calculated from measurements of the length and width of the tumours. Results were calculated as a percentage inhibition of tumour volume relative to untreated controls.

[3] = target: T1, EGF receptor tyrosine kinase (Homo sapiens, UniProt P00533); assay: In vitro inhibition of the enzyme EGF receptor tyrosine kinase (test (a)); type: biochemical; details: approximate value, enzyme partially purified from A431 cells, with EGF, 25° C., 10 minutes
T1 construct: Receptor tyrosine kinase was obtained in partially purified form from A431 cells; endogenous in cells; host or cells: A431 cells (human vulval carcinoma); Triton X-100-solubilised membrane fraction
Method: (a) An in vitro assay which determines the ability of a test compound to inhibit the enzyme EGF receptor tyrosine kinase. Receptor tyrosine kinase was obtained in partially purified form from A431 cells (derived from human vulval carcinoma) by the procedures described below which are related to those described by Carpenter et al., J. Biol. Chem., 1979, 254,4884, Cohen et al., J. Biol. Chem, 1982, 257, 1523 and by Braun et al., J. Biol. Chem., 1984, 259, 2051.
A-431 cells were grown to confluence using Dulbecco's modified Eagle's medium (DMEM) containing 5% fetal calf serum (FCS). The obtained cells were homogenised in a hypotonic borate/EDTA buffer at pH 10.1. The homogenate was centrifuged at 400 g for 10 minutes at 0-4° C. The supernatant was centrifuged at 25,000 g for 30 minutes at 0-4° C. […]
The test compound/EGF mixture solution (5 μl) was added to the test enzyme solution (10 μl) and the mixture was incubated at 0-4° C. for 30 minutes. […] Radioactivity present in the filter paper was measured using a liquid scintillation counter (Sequence A). […]
Receptor tyrosine kinase inhibition was calculated as follows: [formula]
The extent of inhibition was then determined at a range of concentrations of test compound to give an IC50 value.

[4] = test system: human mammary carcinoma which expresses EGF receptor tyrosine kinase; details: athymic nude mice; Toi et al., 1990; cited from earlier work

T1 sequence (P00533 25-1210): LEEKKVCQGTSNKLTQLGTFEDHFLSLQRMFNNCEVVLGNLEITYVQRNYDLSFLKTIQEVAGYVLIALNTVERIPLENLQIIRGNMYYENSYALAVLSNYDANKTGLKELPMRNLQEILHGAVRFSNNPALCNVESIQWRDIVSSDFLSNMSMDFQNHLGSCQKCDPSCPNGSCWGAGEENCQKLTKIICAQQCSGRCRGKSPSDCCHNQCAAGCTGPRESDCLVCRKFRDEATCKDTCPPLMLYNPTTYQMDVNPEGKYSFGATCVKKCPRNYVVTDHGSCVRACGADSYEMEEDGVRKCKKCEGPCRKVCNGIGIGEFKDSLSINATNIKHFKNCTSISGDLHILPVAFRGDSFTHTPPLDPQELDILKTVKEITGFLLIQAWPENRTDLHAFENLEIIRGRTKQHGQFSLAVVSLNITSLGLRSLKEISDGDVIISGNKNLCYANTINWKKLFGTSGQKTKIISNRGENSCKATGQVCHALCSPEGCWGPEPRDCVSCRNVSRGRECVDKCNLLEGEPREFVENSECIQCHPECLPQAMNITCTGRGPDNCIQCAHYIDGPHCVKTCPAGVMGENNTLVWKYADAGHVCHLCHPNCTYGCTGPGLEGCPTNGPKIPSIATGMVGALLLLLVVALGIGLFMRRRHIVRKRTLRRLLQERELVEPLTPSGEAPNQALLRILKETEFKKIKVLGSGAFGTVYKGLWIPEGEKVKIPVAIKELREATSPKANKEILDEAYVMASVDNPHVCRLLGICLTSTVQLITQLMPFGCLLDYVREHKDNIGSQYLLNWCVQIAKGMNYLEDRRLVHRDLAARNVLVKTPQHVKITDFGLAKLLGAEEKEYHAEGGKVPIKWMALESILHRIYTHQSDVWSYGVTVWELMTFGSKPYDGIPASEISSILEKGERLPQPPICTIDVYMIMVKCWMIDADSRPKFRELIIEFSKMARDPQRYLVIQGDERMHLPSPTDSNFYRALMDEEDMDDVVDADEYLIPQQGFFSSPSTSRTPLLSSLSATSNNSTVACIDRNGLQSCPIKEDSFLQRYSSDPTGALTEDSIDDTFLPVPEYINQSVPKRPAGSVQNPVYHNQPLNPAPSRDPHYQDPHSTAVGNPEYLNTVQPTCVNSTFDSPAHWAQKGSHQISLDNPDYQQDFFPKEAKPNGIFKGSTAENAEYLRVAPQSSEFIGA

| Compound | IC50 [1] | inhibition of tumour volume [2] | IC50 [3] | growth of transplanted human mammary carcinoma which expresses EGF receptor tyrosine kinase [4] |
| --- | --- | --- | --- | --- |
| COCCNc1cc2c(Nc3cccc(C)c3)ncnc2cc1OC [compound of the invention, 6-(2-methoxyethylamino)-7-methoxy-4-(3'-methylanilino)quinazoline] | ~200 nM | ~50% | ~10 nM |  |
| O=CN/C=C/c1cc(O)ccc1O [erbstatin] |  |  |  | specifically attenuates the growth |
